Test results from a melting point compilation (Tetko et al.; mined from patent text by program, amines drawn as free bases though some values may be those of a salt).

Row | SMILES | melting point [°C]
1 | CCN1CC(OCC2CCC2)(C(F)(F)F)c2cc(F)ccc2NC1=O (configuration not stated) | 137 to 138
2 | O=C(O)CCC(=O)OCc1ccc(-c2nn(-c3ccc(Br)cc3)c3ccccc23)o1 | 111 to 113
3 | Nc1cccc(C(=O)OC2CCN(Cc3ccccc3)CC2)c1 | 70 to 71
4 | Cc1oc(-c2ccccc2)nc1COc1ccc(COc2nn(-c3ccccc3)cc2CC(=O)O)cn1 | 164 to 165
5 | COC(=O)C1=CC2=CCC3C(CCC4(C)C(C(=O)c5ccc(O)cc5)CCC34)C2(C)CC1 (configuration not stated) | 208 to 210
6 | c1cc2[nH]ncc2cc1OC1CCOCC1 | 151 to 153
7 | CNc1nc2c(N)ncnc2n1C1OC(CO)C(O)C1O (configuration not stated) | > 250
8 | O=C1c2ccccc2C(=O)N1CCOc1ccc([N+](=O)[O-])cc1 | 151 to 153
9 | O=C(Nc1ccc(F)nc1)C1CC1 | 116 to 117
10 | CCCCCCCCCC/C=C\COCc1ccc(CCC(=O)O)cc1 | 35 to 36
11 | OC1=CC(=NNc2ccc(F)cc2)CCC1 | 175 to 176
12 | Cn1c(=O)c2[nH]c(CCCC(=O)O)nc2n(C)c1=O | 254 to 255
13 | O=CNc1nc(C(=NOCC(=O)OC(c2ccccc2)c2ccccc2)C(=O)O)cs1 | 143 to 151
14 | Cc1nccn1CC#CCN1CCCC1=O | 81 to 85
15 | O=C(CN1CCC(O)CC1)Nc1cccc2c1C(=O)c1c-2n[nH]c1-c1ccc(N2CCOCC2)cc1 | 245
16 | CCCCOCC(CN1C(=O)NC(=O)C(CC)(c2ccccc2)C1=O)OC(N)=O (configuration not stated) | 104
17 | OC1(c2ccc3c(c2)OCO3)C(c2ccc(Cl)cc2)SC2=NCCCCN21 (configuration not stated) | 105 to 107
18 | O=C(CCN1CCC(C(O)c2ccc3ccccc3c2)CC1)Cc1ccc(F)cc1 (configuration not stated) | 100 to 102
19 | CC1(C)CC(c2ccc(F)cc2)=C(c2ccc(S(N)(=O)=O)cc2)C1 | 117 to 118
20 | Nc1ncc2c(n1)-c1ccc(Cl)cc1C(c1ccccc1F)=NC2 | 245 to 248

Row | SMILES | melting point [°C]
21 | CCC(CC)(CO)NC(N)=S | 148 to 151
22 | CC(C)CCCC(C)C1CCC2(CC(=O)O)C3=C(CCC12C)C1(C)CCC(O)CC1CC3 (configuration not stated) | 191 to 193
23 | CCCCC1(N2CCCC2)CC=C(c2[nH]c3ccccc3c2CCc2ccncc2)CC1 (configuration not stated) | 187 to 195
24 | CC(C)(C)Sc1c(CC(C)(C)C(=O)O)n(Cc2ccc(Cl)cc2)c2ccc(-c3ccccc3)cc12 | 245 to 246
25 | O=C(O)[C@@H]1CCCN1C(=O)CCCS | 157 to 158
26 | COC(=O)c1ccc(C(=O)C2CCC3=C(N=C(C(C)C)C(C(C)C)N3)C2=O)cc1 (configuration not stated) | 82 to 84
27 | CCCc1nc2c(N)nc3ccccc3c2n1CCCCNS(=O)(=O)c1ccccc1 | 159 to 161
28 | COC(=O)C[C@@H](CC(=O)C=Cc1c(-c2ccc(F)cc2)c(-c2ccc(F)cc2)c(C(=O)Nc2ccc(S(N)(=O)=O)cc2)n1C(C)C)O[Si](C)(C)C(C)(C)C | 108 to 110
29 | Cc1cc(NCCCCCCBr)ccc1O | 144 to 146
30 | Nc1ccccc1C(=O)c1ccc(Cl)cc1 | 100 to 102
31 | COC(=O)C(C#N)C(=O)c1snc(Cl)c1Cl (configuration not stated) | 119 to 122
32 | CC(C)(C)OC(=O)NS(=O)(=O)N1CCC(F)(F)CC1 | 82 to 83
33 | O=C(O)c1cc(F)c(N2CCCC2)nc1NC1CC1 | 64 to 66
34 | O=C(Nc1ccccc1)NC1C(=O)Nc2ccccc2N(CC23CC4CC(CC(C4)C2)C3)C1=O (configuration not stated) | > 280
35 | N#Cc1nn(-c2c(Cl)cc(C(F)(F)F)cc2Cl)c(N)c1-c1ccc(F)cc1 | 222 to 223
36 | O=C(O)/C=C/n1cnc2ccc(O)cc2c1=O | 294 to 296
37 | N#Cc1c(Cl)[nH]c(-c2ccc(Cl)s2)c1Br | > 200
38 | Cc1ccc(S(=O)(=O)c2ccc(N3CCC4(CC3)OCCO4)cc2)cc1 | 164 to 165
39 | Cc1ccc(N2CSC(=NCc3ccc(C(F)(F)C(F)(F)F)cc3)N(CC(F)(F)F)C2=O)cc1 | 103 to 104
40 | CC(CCCCCOCCc1ccc(N(C)C)cc1)NCc1c(CO)ccc(O)c1CO (configuration not stated) | 100 to 101

Row | SMILES | melting point [°C]
41 | N#C/C=C1\CCCCC1n1nc(-c2c(-c3ccccc3)nn3ccccc23)ccc1=O (configuration not stated) | 70 to 72
42 | FC(F)(F)c1ccc2onc(Nc3ccncc3)c2c1 | > 280
43 | CCCCC(=O)c1c(-c2ccncc2)[nH]c(-c2ccncc2)c1C | 88 to 89
44 | CC(O)c1c(NC(=O)C(C)(C)C)cccc1C(F)(F)F (configuration not stated) | 172
45 | CC(C)(C)C(O)C(C(CC#N)c1ccccc1)n1ccnc1 (configuration not stated) | 212 to 228
46 | COC(=O)C(NCc1ccccc1)c1c[nH]c2ccccc12 (configuration not stated) | 91.5 to 93
47 | CC(C)(C)Sc1c(-c2ccc(S(C)(=O)=O)cc2)cnn(CC(F)(F)F)c1=O | 186 to 189
48 | O=C(N1CCOCC1)N1Cc2c(-c3noc(C4CC4)n3)ncn2-c2ccccc21 | 198
49 | CC(C)C[C@H](NC(=O)CCSC(=O)c1ccccc1)C(=O)O | 99 to 101
50 | CCCC(=O)Oc1ccc(C2=NNC(=O)CC2C)cc1 (configuration not stated) | 112 to 113
51 | O=c1[nH]nc(-c2ccc(N=Cc3ccc(O)cc3)cc2)c(O)c1O | 233
52 | CC1(C)C(Cl)C(=O)C1CC(Br)(Br)Br (configuration not stated) | 87 to 89
53 | N#CC(c1ccccc1)c1ccccn1 (racemic) | 89
54 | CCCCCCCCCCCCCCCCOCC(O)CN1CCC(c2ccccc2)CC1 (configuration not stated) | 64 to 65
55 | N=C(N)N1CCC(CC(=O)O)CC1 | > 310
56 | COC(=O)C(=CC1C(C(=O)O)C1(C)C)OC (configuration not stated) | 78
57 | CC(=O)NC12CC3(C)CC(C)(CC(CO)(C3)C1)C2 | 152 to 153
58 | COc1c(C(C)(C)C)cc(C(N)=O)cc1C(C)(C)C | 239 to 243
59 | CC(C)(C)c1cc(SC(Sc2cc(C(C)(C)C)c(O)c(C(C)(C)C)c2)C2CC=CCC2)cc(C(C)(C)C)c1O (configuration not stated) | 122 to 125

The remaining lines, values ahead:

Row | melting point [°C] | SMILES
60 | 123 to 124 | Nc1cccc(C(=O)N2N=C(C(F)(F)F)CC2(O)c2cc(F)c(Cl)cc2F)c1 (configuration not stated)
61 | 125 | COc1ccc(/C=C/C(=O)c2ccc(OCc3ccccc3)cc2OCc2ccccc2)c(OC)c1C
62 | 150 to 152 | CC(C)C12COc3cc(Cl)ccc3C1=NN(C(=O)Nc1ccc(C(F)(F)F)cc1)C2 (configuration not stated)
63 | 122 to 123 | COC(=O)CCC(=O)c1cc(C(C)C)c(Oc2nnnn2-c2ccccc2)c(C(C)C)c1
64 | 90 to 91 | CC(Cc1ccc(F)cc1F)C(N)=O (configuration not stated)
65 | 216 to 219 | CC(=O)Cn1nc(-c2sc(N)nc2-c2ccccc2)ccc1=O
66 | 162 to 163 | CCCn1c(=O)c2[nH]c(/C=C/c3cc(OC)c(OC)c(OC)c3)nc2n(CCC)c1=O
67 | 134 | CCOC(=O)C1=C(N)OC(C)=C(C(=O)OC)C1c1cccc([N+](=O)[O-])c1 (configuration not stated)
68 | 115 to 116 | CC(=O)c1ccc(OCc2ccccc2)c(CCCc2ccccc2)c1O
69 | 136 to 138 | COc1cc(OC)c2sc(-c3c(F)cccc3F)nc2c1
70 | 213 to 215 | CC(=NNC(=N)N)c1sc(-c2ccc(C3=CCCCC3)cc2)nc1C
71 | 146 to 147 | CCOC(=O)C(=O)N(c1ccccc1)c1cc(OC)c([N+](=O)[O-])cc1OC
72 | 252 to 253 | CCc1cc(-c2ccc(Cl)cc2)nc2c(C(=O)Nc3cccc(S(N)(=O)=O)c3)cnn12
73 | 213 to 214 | Oc1ccc(C=Cc2cccc(O)c2)cc1
74 | 104 to 105 | CON=C(C(C)=NN=Cc1ccccc1C(=NOC)C(=O)OC)c1ccc(Cl)cc1
75 | 126 to 127 | Cc1cc(C)n(-c2nc(-c3ccc(Cl)cc3)c(CCC(=O)N3CCN(CC4CCN(C)CC4)CC3)o2)n1
76 | 149 to 152 | CC(=O)Nc1ccc(C(C)=O)c(F)c1F
77 | 390 | CC(=O)Nc1ccc2c(c1)[nH]c(=O)c(=O)n2C
78 | 177 to 180 | Clc1ccccc1-c1ccc2nncn2c1
79 | 48 to 50 | COc1ccc(SCc2ccccc2)cc1
80 | 133 to 135 | O=C1c2ccccc2C(=O)N1OCc1cnoc1
81 | 67 | CCOC(=O)c1c(O)c2ccccc2n(C)c1=O

Row | melting point [°C] | SMILES
82 | 133 to 134 | CCc1ccc(C(=O)Nc2ccccc2)cc1Nc1cccc(C(F)(F)F)c1
83 | 159 to 160 | N#Cc1cnc2cc(F)c(OCc3ccccc3)cc2c1Cl
84 | 199 to 201 | CCOc1nn(CCOc2ccc3ccccc3c2CC(=O)O)cc1C(=O)NCc1ccc(Cl)cc1Cl
85 | 169 to 170 | CCOC(=O)c1cccc(NC(=O)c2ccc(OC)c(Nc3cccc(C(F)(F)F)c3)c2)c1
86 | 220 to 222 | CCOC(=O)c1cc(=O)c2c(OCCOc3ccc(NC(C)=O)cc3)cccc2o1
87 | 134 to 136 | Cc1cccc2c(-c3ccc(F)cc3)onc12
88 | 84 to 86 | COC1=C(C)C(=O)C(OC)=C(CCCCCC2=C(OC)C(=O)C(C)=C(OC)C2=O)C1=O
89 | 76 to 77 | CC(Oc1cc(Cl)ccc1Br)C(=O)N(C)C (configuration not stated)
90 | 108 to 110 | CCC(CC)Oc1cc(C)nc(Nc2c(C)cc(C)cc2C)c1C(=O)C#N
91 | 184 to 185 | O=C(NCc1ccc(Cl)cc1)c1cc(F)c2cccnc2c1O
92 | 132 to 134 | CCCOc1cc2c(c3c1OC(C)(C)C3)C(c1cccc(-c3ccncc3)c1)=NC(C)(C)C2
93 | 233 to 234 | O=C(O)c1c(-c2ccccc2)c2cc(Cl)c(Cl)cc2oc1=O
94 | 193 to 194 | Cn1c(C(=O)O)c(Oc2ccccc2N)c2ccccc21
95 | 185 to 187 | O=c1oc2ccccc2c2ccc(O)c(O)c12
96 | 140 to 141 | COc1ccc(-c2c(C)c3ccc(OC(C)=O)c(O)c3oc2=O)c(OC)c1
97 | 199 to 200 | Cc1cc(Nc2cc(-c3cccc(N4CCc5c(cc6n5CCCC6)C4=O)c3CO)cn(C)c2=O)n[nH]1
98 | 134 to 136 | CCCc1ccc(OCC(C)O)c2c(=O)cc(C(=O)O)oc12 (configuration not stated)
99 | 104 to 105 | Cc1nc(Cl)ccc1C#N
100 | 80.8 | Nc1cc(Cl)c(Sc2ccc(C(F)(F)F)cc2Cl)cc1F
101 | 165 to 166 | Cc1ccc(Oc2ccccc2C(=O)O)c(NS(=O)(=O)c2cc(C(F)(F)F)cc(C(F)(F)F)c2)c1
102 | 114 to 116 | CCOC(=O)c1c(C(F)(F)F)nn(-c2c(Cl)cc(Cl)cc2Cl)c1N
